The record followed here is patent US9723840B2 (SYNGENTA PARTICIPATIONS AG, priority 2013, dated 2017).

Format in all cases: in vivo
The subject of test [1] is Alopecurus myosuroides. Nature of the test: Pre-emergence herbicidal activity, ALOMY. Particulars: 1000 g/Ha, pre-emergence spray, evaluated after 13 days, scale 0-5. As for the experimental part:
(§1) Seeds of a variety of test species were sown in standard soil in pots. After cultivation for one day (pre-emergence) under controlled conditions in a glasshouse (at 24/16° C., day/night; 14 hours light; 65% humidity), the plants were sprayed with an aqueous spray solution derived from the formulation of the technical active ingredient in acetone/water (50:50) solution containing 0.5% Tween 20 (polyoxyethelyene sorbitan monolaurate, CAS RN 9005-64-5). The test plants were then grown in a glasshouse under controlled conditions (at 24/16° C., day/night; 14 hours light; 65% humidity) and watered twice daily. After 13 days, the test was evaluated (5=total damage to plant; 0=no damage to plant).

The test system of test [2] is Setaria faberi. Put plainly: Post-emergence herbicidal activity, SETFA. Set-up: key: 5=total damage to plant; 0=no damage to plant. To be noted: 1000 g/Ha, post-emergence spray (8 days cultivation), evaluated after 13 days, scale 0-5. Here is the method: (§2) Seeds of a variety of test species were sown in standard soil in pots. After 8 days cultivation (post-emergence) under controlled conditions in a glasshouse (at 24/16° C., day/night; 14 hours light; 65% humidity), the plants were sprayed with an aqueous spray solution derived from the formulation of the technical active ingredient in acetone/water (50:50) solution containing 0.5% Tween 20 (polyoxyethelyene sorbitan monolaurate, CAS RN 9005-64-5). The test plants were then grown in a glasshouse under controlled conditions (at 24/16° C., day/night; 14 hours light; 65% humidity) and watered twice daily. After 13 days, the test was evaluated (5=total damage to plant; 0=no damage to plant).

The subject of test [3] is Abutilon theophrasti. Nature of the test: Post-emergence herbicidal activity, ABUTH. To be noted: 1000 g/Ha, post-emergence spray (8 days cultivation), evaluated after 13 days, scale 0-5. On the set-up: key: 5=total damage to plant; 0=no damage to plant. As for the experimental part:
as §2

The subject of test [4] is Alopecurus myosuroides. Put plainly: Post-emergence herbicidal activity, ALOMY. Particulars: 1000 g/Ha, post-emergence spray (8 days cultivation), evaluated after 13 days, scale 0-5. On the set-up: key: 5=total damage to plant; 0=no damage to plant. Here is the method: as §2
Test [5] concerns Echinochloa crus-galli. Put plainly: Post-emergence herbicidal activity, ECHCG. On the set-up: key: 5=total damage to plant; 0=no damage to plant. To be noted: 1000 g/Ha, post-emergence spray (8 days cultivation), evaluated after 13 days, scale 0-5. As for the experimental part: as §2
The test system of test [6] is Echinochloa crus-galli. Nature of the test: Pre-emergence herbicidal activity, ECHCG. To be noted: 1000 g/Ha, pre-emergence spray, evaluated after 13 days, scale 0-5. On the set-up: key: 5=total damage to plant; 0=no damage to plant. As for the experimental part:
as §1

In test [7] the test system is Zea mays. Put plainly: Post-emergence herbicidal activity, ZEAMX. Particulars: 1000 g/Ha, post-emergence spray (8 days cultivation), evaluated after 13 days, scale 0-5. Set-up: key: 5=total damage to plant; 0=no damage to plant. Here is the method:
as §2

For test [8], the system named is Amaranthus retroflexus. Put plainly: Post-emergence herbicidal activity, AMARE. Set-up: key: 5=total damage to plant; 0=no damage to plant. To be noted: 1000 g/Ha, post-emergence spray (8 days cultivation), evaluated after 13 days, scale 0-5. As for the experimental part: as §2
Test [9] concerns Abutilon theophrasti. Put plainly: Pre-emergence herbicidal activity, ABUTH. Particulars: 1000 g/Ha, pre-emergence spray, evaluated after 13 days, scale 0-5. On the set-up: key: 5=total damage to plant; 0=no damage to plant. Here is the method:
as §1

Test [10] deals with Zea mays. Nature of the test: Pre-emergence herbicidal activity, ZEAMX. To be noted: 1000 g/Ha, pre-emergence spray, evaluated after 13 days, scale 0-5. Here is the method:
as §1

The subject of test [11] is Amaranthus retroflexus. Nature of the test: Pre-emergence herbicidal activity, AMARE. Set-up: key: 5=total damage to plant; 0=no damage to plant. Particulars: 1000 g/Ha, pre-emergence spray, evaluated after 13 days, scale 0-5. Here is the method: as §1
In test [12] the test system is Setaria faberi. Put plainly: Pre-emergence herbicidal activity, SETFA. On the set-up: key: 5=total damage to plant; 0=no damage to plant. To be noted: 1000 g/Ha, pre-emergence spray, evaluated after 13 days, scale 0-5. Here is the method:
as §1

Regarding `CON1C(=O)N(c2ccc(C(=O)NC(C)(C)C)nn2)C(O)C1C` (stereo not drawn) [Example A14], the “ALOMY damage score, application pre-emergence” value in test [1] turned out to be 4. For the same compound, the “SETFA damage score, application post-emergence” value in test [2] worked out at 5. Besides, the “ABUTH damage score, application post-emergence” value in test [3] was found to be 5. Moreover, the “ALOMY damage score, application post-emergence” value in test [4] was found to be 5. The “ECHCG damage score, application post-emergence” value in test [5] is given as 5. The “ECHCG damage score, application pre-emergence” value in test [6] came out at 4. Moreover, the “ZEAMX damage score, application post-emergence” value in test [7] was 5. Besides, the “AMARE damage score, application post-emergence” value in test [8] is listed as 5. Further, the “ABUTH damage score, application pre-emergence” value in test [9] was determined as 5. In addition, the “ZEAMX damage score, application pre-emergence” value in test [10] is 2. Also, the “AMARE damage score, application pre-emergence” value in test [11] stood at 5. Further, the “SETFA damage score, application pre-emergence” value in test [12] stood at 4.
In the case of `CCOC1C(O)N(c2cc(C(C)(C)F)c(Cl)nn2)C(=O)N1C` (stereo not drawn) [Example A9, 1-[6-chloro-5-(1-fluoro-1-methyl-ethyl)pyridazin-3-yl]-4-ethoxy-5-hydroxy-3-methyl-imidazolidin-2-one], the “ALOMY damage score, application pre-emergence” value in test [1] is on record as 4. For the same compound, the “SETFA damage score, application post-emergence” value in test [2] is on record as 5. Besides, in test [3], the “ABUTH damage score, application post-emergence” value worked out at 5. Besides, in test [4], the “ALOMY damage score, application post-emergence” value is reported as 5. Moreover, in test [5], the “ECHCG damage score, application post-emergence” value amounted to 5. In addition, in test [6], the “ECHCG damage score, application pre-emergence” value was found to be 5. The “ZEAMX damage score, application post-emergence” value in [7] came to 5. Also, the “AMARE damage score, application post-emergence” value in test [8] is reported as 5. Moreover, in test [9], the “ABUTH damage score, application pre-emergence” value worked out at 5. Besides, the “ZEAMX damage score, application pre-emergence” value in test [10] was found to be 3. Also, the “AMARE damage score, application pre-emergence” value in test [11] is 5. Further, the “SETFA damage score, application pre-emergence” value in [12] is on record as 5.
